This note sets out measurements from patent US6867320B2, “Substituted phenylalkanoic acid derivatives and use thereof” (Asahi Kasei Pharma Corporation, priority 2002, dated 2005).

SMILES strings stand for the structures. Some results are limits rather than exact numbers.

Assay [1] relates to LTB4 production from IgE-stimulated RBL-2H3 cells. Put plainly: Suppressing action on LTB4 production from IgE-stimulated RBL-2H3 cells. It counts as cell-based. The note with it: Rattus norvegicus, 10 min, IgE/DNP-BSA stimulated RBL-2H3 cells, read-out: LTB4 production suppression ratio. In short, it runs like this: (§1)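 Rat RBL-2H3 mastocytoma cells, sensitized 30 min with anti-DNP-BSA IgE, then given test compound in 0.5% FBS medium and stimulated with DNP-BSA (100 ng/ml final). Supernatant PGD2 and LTB4 were measured by EIA after 10 min. Suppression ratio is calculated against unstimulated and stimulant-only controls.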

For assay [2], the system named is zymosan-stimulated footpad edema. The assay can be described thus: Mouse zymosan-stimulated footpad edema reaction. It counts as in vivo. The note with it: ICR female mice, oral 0.1 to 500 mg/kg, compared with positive control group. In short, it runs like this:
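Female ICR mice (6–7 weeks, n=8) dosed orally at 0.1 to 500 mg/kg in 0.5% methylcellulose; 1 h later zymosan (1 mg/ml, 0.02 ml) injected s.c. into right hind footpad. Edema volume at 1 and 2 h gave AUC to 2 h; suppression (%) calculated against positive control AUC.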

Assay [3] deals with IgE-stimulated footpad edema. Put plainly: Mouse IgE-stimulated footpad edema reaction. It counts as in vivo. The note with it: C57BL/6 male mice, oral 0.1 to 500 mg/kg, compared with positive control group. On the procedure: 4. Suppressing Effect on Mouse IgE-stimulated Footpad Edema Reaction
Suppression on footpad edema caused by IgE antibody as an allergic stimulant was studied by the following method. Groups of C57BL/6 male mice (9- to 11-week old) each consisting of five mice were used for the test. Anti-DNP-BSA IgE serum was subcutaneously administered in a volume of 20 μl to right hind leg footpad of each mouse one day before the test. A test compound was suspended or dissolved in purified water containing 0.5% methylcellulose and orally administered to the test animals at 0.1 to 500 mg/0.2 ml/kg. To the control group, purified water containing 0.5% methylcellulose was administered in a similar manner, which was not added with the test compound. Two hours after the administration of the test compound, 0.2 ml of a solution of DNP-BSA dissolved in physiological saline (Otsuka Pharmaceutical) at 2.5 μg/ml was intravenously administered. The thickness of right hind leg footpad was measured by using a digital thickness gauge (MITSUTOYO) 10, 15, 20, and 30 minutes after the administration of DNP-BSA. A difference of the thickness of footpad measured above and the thickness before the administration of the test compound measured beforehand was regarded as a thickness of edema.
For the thickness of the edema at 10, 15, 20 and 30 minutes after the DNP-BSA administration, a graph was prepared indicating time in abscissa and the edema thickness in ordinate, and edema thickness AUC […] was obtained by calculation according to the following equation. Edema thickness AUC (mm·minute)=1/2×10×A+5×(A+B)/2+5×(B+C)/2+10×(C+D)/2 • A: Edema thickness 10 minutes after DNP-BSA administration • B: Edema thickness 15 minutes after DNP-BSA administration • C: Edema thickness 20 minutes after DNP-BSA administration • D: Edema thickness 30 minutes after DNP-BSA administration
A suppressing ratio on edema of a test compound was obtained by calculation in accordance with the following equation. Edema suppression ratio (%)=[1−B/A]×100 • A: Edema thickness AUC of positive control • B: Edema thickness AUC of test compound administered group (2) Measurement Results

For assay [4], the system named is PGD2 production from IgE-stimulated RBL-2H3 cells. Put plainly: Suppressing action on PGD2 production from IgE-stimulated RBL-2H3 cells. It counts as cell-based. To be noted: Rattus norvegicus, 10 min, IgE/DNP-BSA stimulated RBL-2H3 cells, read-out: PGD2 production suppression ratio. In short, it runs like this: as §1
Assay [5] has as its system PGE2 production from IL-1β-stimulated MG-63 cells. Put plainly: Suppressing action on PGE2 production from IL-1β-stimulated MG-63 cells. It counts as cell-based. To be noted: Homo sapiens, IL-1β 1 ng/ml, 18 hours, read-out: PGE2 production suppression ratio. Summed up:
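Human osteosarcoma MG-63 cells (2×10^4/well) switched to 0.5% FBS medium, treated with compound, then stimulated with IL-1β at 1 ng/ml final for 18 h. Supernatant PGE2 measured by EIA; suppression ratio calculated against stimulated and unstimulated wells.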

As to `O=C(O)CCc1ccc(OCC2CCCCC2)c(-c2ccc3cc(O)ccc3c2)c1` [Compound 002, 3-[4-cyclohexylmethyloxy-3-(6-hydroxynaphthalen-2-yl)phenyl]propionic acid], the inhibition at 0.4 µM in assay [1], in assay [4] and in assay [5] was at least 50% throughout. Moreover, the “suppression of footpad edema caused by zymosan” value (“suppression … by zymosan” for short) in assay [2] is “suppressed footpad edema”. Also, the “suppression of footpad edema caused by IgE stimulation” value (“suppression … by IgE stimulation” below) in assay [3] was “suppressed the footpad edema”.

`Nc1ccc2cc(-c3cc(CCC(=O)O)ccc3OCC3CCCC3)ccc2c1` [Compound 012, 3-[3-(6-aminonaphthalen-2-yl)-4-cyclopentylmethyloxyphenyl]propionic acid]: the inhibition at 0.4 µM in assay [1], in assay [4] and in assay [5] was at least 50% each time. Further, in assay [2], the “suppression … by zymosan” value was “suppressed footpad edema”. In addition, the “suppression … by IgE stimulation” value in assay [3] is reported as “suppressed the footpad edema”.

As to `Nc1ccc2ccc(-c3cc(CCC(=O)O)ccc3OCC3CCCC3)cc2c1` [Compound 014, 3-[3-(7-aminonaphthalen-2-yl)-4-cyclopentylmethyloxyphenyl]propionic acid], the inhibition at 0.4 µM in assay [1], in assay [4] and in assay [5] was at least 50% in each case. The “suppression … by IgE stimulation” value in assay [3] is given as “suppressed the footpad edema”.

For the molecule `O=C(O)CCc1ccc(OCC2CCCC2)c(-c2ccc3ccccc3c2)c1` [Compound 039, 3-[4-cyclopentylmethyloxy-3-(naphthalen-2-yl)phenyl]propionic acid], the inhibition at 0.4 µM in assay [1], in assay [4] and in assay [5] was at least 50% each time. In assay [2], the “suppression … by zymosan” value is on record as “suppressed footpad edema”. Further, the “suppression … by IgE stimulation” value in assay [3] is given as “suppressed the footpad edema”.

For the molecule `O=C(O)CCc1ccc(OC2CCCC2)c(-c2ccc3ccccc3c2)c1` [Compound 043, 3-[4-cyclopentyloxy-3-(naphthalen-2-yl)phenyl]propionic acid], the inhibition at 0.4 µM in assay [1], in assay [4] and in assay [5] was at least 50% in each case. Moreover, the “suppression … by zymosan” value in assay [2] is reported as “suppressed footpad edema”. The “suppression … by IgE stimulation” value in assay [3] is “suppressed the footpad edema”.

Regarding `O=C(O)CCc1ccc(OCCC2CCCC2)c(-c2ccc3ccccc3c2)c1` [Compound 047, 3-[4-(2-cyclopentylethyloxy)-3-(naphthalen-2-yl)phenyl]propionic acid], the inhibition at 0.4 µM in assay [1], in assay [4] and in assay [5] was at least 50% throughout. Further, the “suppression … by zymosan” value in assay [2] is listed as “suppressed footpad edema”. In assay [3], the “suppression … by IgE stimulation” value is “suppressed the footpad edema”.

Turning to `O=C(O)CCc1ccc(OCCc2ccccc2F)c(-c2ccc3ccccc3c2)c1` [Compound 053, 3-{4-[2-(2-fluorophenyl)ethyloxy]-3-(naphthalen-2-yl)phenyl}propionic acid], the inhibition at 0.4 µM in assay [1], in assay [4] and in assay [5] was at least 50% throughout. Further, the “suppression … by zymosan” value in assay [2] is listed as “suppressed footpad edema”. Moreover, the “suppression … by IgE stimulation” value in assay [3] is on record as “suppressed the footpad edema”.

For the molecule `O=C(O)CCc1ccc(OCC2CCCC2)c(-c2ccc3[nH]ccc3c2)c1` [Compound 100, 3-[4-cyclopentylmethyloxy-3-(1H-indol-5-yl)phenyl]propionic acid], the inhibition at 0.4 µM in assay [1], in assay [4] and in assay [5] was at least 50% in each case. Also, the “suppression … by zymosan” value in assay [2] is “suppressed footpad edema”. In assay [3], the “suppression … by IgE stimulation” value is recorded as “suppressed the footpad edema”.

Take `Cn1ccc2cc(-c3cc(CCC(=O)O)ccc3OC3CCCC3)ccc21` [Compound 108, 3-[4-cyclopentyloxy-3-(1-methyl-1H-indol-5-yl)phenyl]propionic acid]: the inhibition at 0.4 µM in assay [1], in assay [4] and in assay [5] was at least 50% throughout. Moreover, the “suppression … by zymosan” value in assay [2] is “suppressed footpad edema”. For the same molecule, the “suppression … by IgE stimulation” value in assay [3] is reported as “suppressed the footpad edema”.

Turning to `CC(Oc1ccc(CCC(=O)O)cc1-c1ccc2[nH]ccc2c1)c1ccccc1` (centres unmarked) [Compound 132, 3-[3-(1H-indol-5-yl)-4-(1-phenylethyloxy)phenyl]propionic acid], the inhibition at 0.4 µM in assay [1], in assay [4] and in assay [5] was at least 50% throughout. The “suppression … by zymosan” value in assay [2] is recorded as “suppressed footpad edema”. The “suppression … by IgE stimulation” value in assay [3] is “suppressed the footpad edema”.

For the molecule `O=C(O)CCc1ccc(OCc2ccc(F)cc2)c(-c2ccc3[nH]ccc3c2)c1` [Compound 146, 3-[4-(4-fluorophenylmethyloxy)-3-(1H-indol-5-yl)phenyl]propionic acid], the inhibition at 0.4 µM in assay [1], in assay [4] and in assay [5] was at least 50% throughout. In assay [2], the “suppression … by zymosan” value is “suppressed footpad edema”. In assay [3], the “suppression … by IgE stimulation” value is reported as “suppressed the footpad edema”.

For `O=C(O)CCc1ccc(OCc2cccc(Cl)c2Cl)c(-c2ccc3[nH]ccc3c2)c1` [Compound 160, 3-[4-(2,3-dichlorophenylmethyloxy)-3-(1H-indol-5-yl)phenyl]propionic acid], the inhibition at 0.4 µM in assay [1], in assay [4] and in assay [5] was at least 50% in each case. In assay [3], the “suppression … by IgE stimulation” value is listed as “suppressed the footpad edema”.

For `O=C(O)CCc1ccc(OCc2ccc(Cl)c(Cl)c2)c(-c2ccc3[nH]ccc3c2)c1` [Compound 166, 3-[4-(3,4-dichlorophenylmethyloxy)-3-(1H-indol-5-yl)phenyl]propionic acid], the inhibition at 0.4 µM in assay [1], in assay [4] and in assay [5] was at least 50% throughout. Also, in assay [3], the “suppression … by IgE stimulation” value was “suppressed the footpad edema”.

Consider `O=C(O)CCc1ccc(OCc2cccc3ccccc23)c(-c2ccc3[nH]ccc3c2)c1` [Compound 190, 3-{3-(1H-indol-5-yl)-4-[(naphthalen-1-yl)methyloxy]phenyl}propionic acid], for which the inhibition at 0.4 µM in assay [1], in assay [4] and in assay [5] was at least 50% in each case. Besides, the “suppression … by IgE stimulation” value in assay [3] is on record as “suppressed the footpad edema”.

Consider `O=C(O)CCc1ccc(OCCc2ccccc2C(F)(F)F)c(-c2ccc3[nH]ccc3c2)c1` [Compound 214, 3-[3-(1H-indol-5-yl)-4-{2-[2-(trifluoromethyl)phenyl]-ethyloxy}phenyl]propionic acid], for which the inhibition at 0.4 µM in assay [1], in assay [4] and in assay [5] was at least 50% each time. Moreover, the “suppression … by IgE stimulation” value in assay [3] is given as “suppressed the footpad edema”.

In the case of `O=C(O)CCc1ccc(OCCc2ccc3ccccc3c2)c(-c2ccc3[nH]ccc3c2)c1` [Compound 217, 3-{4-[2-(naphthalen-2-yl)ethyloxy]-3-(1H-indol-5-yl)phenyl}propionic acid], the inhibition at 0.4 µM in assay [1], in assay [4] and in assay [5] was at least 50% in each case. For the same molecule, the “suppression … by IgE stimulation” value in assay [3] is “suppressed the footpad edema”.
